Legend:
Type in all cases: functional
RXF 393 = test: Growth inhibition of human RXF393 cells assessed as cell growth at 100 uM incubated for 48 hrs by sulforhodamine B assay relative to control; conditions: RXF 393, 48 h, read-out: Activity
SF-268 [1] = test: Growth inhibition of human SF268 cells assessed as cell growth at 1 uM incubated for 48 hrs by sulforhodamine B assay relative to control; conditions: SF-268, 48 h, read-out: Activity
NCI-H460 [2] = test: Growth inhibition of human NCI-H460 cells assessed as cell growth at 1 uM incubated for 48 hrs by sulforhodamine B assay relative to control; conditions: NCI-H460, 48 h, read-out: Activity
CAKI-1 [3] = test: Growth inhibition of human Caki1 cells assessed as cell growth at 1 uM incubated for 48 hrs by sulforhodamine B assay relative to control; conditions: CAKI-1, 48 h, read-out: Activity
SNB-75 = test: Growth inhibition of human SNB75 cells assessed as cell growth at 0.1 uM incubated for 48 hrs by sulforhodamine B assay relative to control; conditions: SNB-75, 48 h, read-out: Activity
SK-MEL-28 = test: Growth inhibition of human SK-MEL-28 cells assessed as cell growth at 0.1 uM incubated for 48 hrs by sulforhodamine B assay relative to control; conditions: SK-MEL-28, 48 h, read-out: Activity
PC-3 = test: Growth inhibition of human PC3 cells assessed as cell growth at 0.01 uM incubated for 48 hrs by sulforhodamine B assay relative to control; conditions: PC-3, 48 h, read-out: Activity
NCI-H460 [4] = test: Growth inhibition of human NCI-H460 cells assessed as cell growth at 100 uM incubated for 48 hrs by sulforhodamine B assay relative to control; conditions: NCI-H460, 48 h, read-out: Activity
HOP-62 = test: Growth inhibition of human HOP62 cells assessed as cell growth at 100 uM incubated for 48 hrs by sulforhodamine B assay relative to control; conditions: HOP-62, 48 h, read-out: Activity
HOP-92 = test: Growth inhibition of human HOP92 cells assessed as cell growth at 0.1 uM incubated for 48 hrs by sulforhodamine B assay relative to control; conditions: HOP-92, 48 h, read-out: Activity
M14 = test: Growth inhibition of human M14 cells assessed as cell growth at 100 uM incubated for 48 hrs by sulforhodamine B assay relative to control; conditions: M14, 48 h, read-out: Activity
MCF7 [5] = test: Growth inhibition of human MCF7 cells assessed as cell growth at 0.01 uM incubated for 48 hrs by sulforhodamine B assay relative to control; conditions: MCF7, 48 h, read-out: Activity
OVCAR-5 = test: Growth inhibition of human OVCAR5 cells assessed as cell growth at 0.01 uM incubated for 48 hrs by sulforhodamine B assay relative to control; conditions: OVCAR-5, 48 h, read-out: Activity
NCI/ADR-RES = test: Growth inhibition of human NCI-ADR-RES cells incubated for 48 hrs by sulforhodamine B assay
OVCAR-3 = test: Growth inhibition of human OVCAR3 cells assessed as cell growth at 0.01 uM incubated for 48 hrs by sulforhodamine B assay relative to control; conditions: OVCAR-3, 48 h, read-out: Activity
A498 = test: Growth inhibition of human A498 cells assessed as cell growth at 100 uM incubated for 48 hrs by sulforhodamine B assay relative to control; conditions: A498, 48 h, read-out: Activity
NCI-H23 = test: Growth inhibition of human NCI-H23 cells assessed as cell growth at 0.1 uM incubated for 48 hrs by sulforhodamine B assay relative to control; conditions: NCI-H23, 48 h, read-out: Activity
K562 = test: Growth inhibition of human K562 cells assessed as cell growth at 1 uM incubated for 48 hrs by sulforhodamine B assay relative to control; conditions: K562, 48 h, read-out: Activity
BT-549 [6] = test: Growth inhibition of human BT549 cells assessed as cell growth at 0.1 uM incubated for 48 hrs by sulforhodamine B assay relative to control; conditions: BT-549, 48 h, read-out: Activity
CAKI-1 [7] = test: Growth inhibition of human Caki1 cells assessed as cell growth at 0.01 uM incubated for 48 hrs by sulforhodamine B assay relative to control; conditions: CAKI-1, 48 h, read-out: Activity
MOLT-4 = test: Growth inhibition of human MOLT4 cells assessed as cell growth at 100 uM incubated for 48 hrs by sulforhodamine B assay relative to control; conditions: MOLT-4, 48 h, read-out: Activity
RPMI-8226 = test: Growth inhibition of human RPMI8226 cells assessed as cell growth at 0.1 uM incubated for 48 hrs by sulforhodamine B assay relative to control; conditions: RPMI-8226, 48 h, read-out: Activity
UACC-257 = test: Growth inhibition of human UACC257 cells assessed as cell growth at 0.1 uM incubated for 48 hrs by sulforhodamine B assay relative to control; conditions: UACC-257, 48 h, read-out: Activity
SF-268 [8] = test: Growth inhibition of human SF268 cells incubated for 48 hrs by sulforhodamine B assay; conditions: SF-268, 48 h
MCF7 [9] = test: Growth inhibition of human MCF7 cells assessed as cell growth at 1 uM incubated for 48 hrs by sulforhodamine B assay relative to control; conditions: MCF7, 48 h, read-out: Activity
HT-29 = test: Growth inhibition of human HT-29 cells assessed as cell growth at 100 uM incubated for 48 hrs by sulforhodamine B assay relative to control; conditions: HT-29, 48 h, read-out: Activity
HCT-116 = test: Growth inhibition of human HCT116 cells assessed as cell growth at 100 uM incubated for 48 hrs by sulforhodamine B assay relative to control; conditions: HCT-116, 48 h, read-out: Activity
BT-549 [10] = test: Growth inhibition of human BT549 cells incubated for 48 hrs by sulforhodamine B assay; conditions: BT-549, 48 h
SR = test: Growth inhibition of human SR cells incubated for 48 hrs by sulforhodamine B assay
OVCAR-4 = test: Growth inhibition of human OVCAR4 cells incubated for 48 hrs by sulforhodamine B assay; conditions: OVCAR-4, 48 h
[11] = read-out: LC50 (the source's name)
[12] = read-out: pLC50 (the source's name) (converted)

Which growth at 100 µM (RXF 393) does the source give for `c1ccc2c3c([nH]c2c1)C(c1ccc(C2NCCc4c2[nH]c2ccccc42)cc1)NCC3` (racemic) here?
Its growth at 100 µM is -81%.

And the growth at 1 µM (SF-268 [1])?
The growth at 1 µM was 57%.

And the growth at 1 µM (NCI-H460 [2])?
Its growth at 1 µM is 56%.

And the growth at 1 µM (CAKI-1 [3])?
The growth at 1 µM was 78%.

And the growth at 0.1 µM (SNB-75)?
Its growth at 0.1 µM is 72%.

What about the growth at 0.1 µM (SK-MEL-28) of the same compound?
Its growth at 0.1 µM is 96%.

And the growth at 0.01 µM (PC-3)?
Its growth at 0.01 µM is 96%.

What about the growth at 100 µM (NCI-H460 [4]) of the same compound?
Its growth at 100 µM is 85%.

And the growth at 100 µM (HOP-62)?
Its growth at 100 µM is 83%.

And the growth at 0.1 µM (HOP-92)?
Its growth at 0.1 µM is 87%.

And the growth at 100 µM (M14)?
Its growth at 100 µM is 95%.

What about the growth at 0.01 µM (MCF7 [5]) of the same compound?
The growth at 0.01 µM was 88%.

What about the growth at 0.01 µM (OVCAR-5) of the same compound?
Its growth at 0.01 µM is 91%.

And the GI50 (NCI/ADR-RES; read-out: GI50)?
Its GI50 is 2100 nM.

What about the CC50 (NCI/ADR-RES; [11]) of the same compound?
Its CC50 is > 1000 nM.

What about the TGI (NCI/ADR-RES; read-out: TGI) of the same compound?
The TGI was 7810 nM.

What about the GI50 (NCI/ADR-RES; read-out: pGI50 (converted)) of the same compound?
The GI50 was 2090 nM.

What about the CC50 (NCI/ADR-RES; read-out: pLC50 (converted)) of the same compound?
The CC50 was > 100000 nM.

What about the TGI (NCI/ADR-RES; read-out: pTGI (converted)) of the same compound?
Its TGI is 7760 nM.

What about the growth at 0.01 µM (OVCAR-3) of the same compound?
Its growth at 0.01 µM is 100%.

And the growth at 100 µM (A498)?
The growth at 100 µM was -85%.

And the growth at 0.1 µM (NCI-H23)?
The growth at 0.1 µM was 88%.

And the growth at 1 µM (K562)?
The growth at 1 µM was 52%.

What about the growth at 0.1 µM (BT-549 [6]) of the same compound?
Its growth at 0.1 µM is 95%.

What about the growth at 0.01 µM (CAKI-1 [7]) of the same compound?
Its growth at 0.01 µM is 90%.

And the growth at 100 µM (MOLT-4)?
Its growth at 100 µM is 76%.

What about the growth at 0.1 µM (RPMI-8226) of the same compound?
Its growth at 0.1 µM is 105%.

What about the growth at 0.1 µM (UACC-257) of the same compound?
The growth at 0.1 µM was 104%.

What about the GI50 (SF-268 [8]; read-out: GI50) of the same compound?
Its GI50 is 1120 nM.

What about the CC50 (SF-268 [8]; [11]) of the same compound?
The CC50 was 5890 nM.

And the TGI (SF-268 [8]; read-out: TGI)?
The TGI was 2570 nM.

What about the GI50 (SF-268 [8]; read-out: pGI50 (converted)) of the same compound?
Its GI50 is 1120 nM.

What about the CC50 (SF-268 [8]; [12]) of the same compound?
The CC50 was 5890 nM.

And the TGI (SF-268 [8]; read-out: pTGI (converted))?
The TGI was 2570 nM.

What about the growth at 1 µM (MCF7 [9]) of the same compound?
The growth at 1 µM was 22%.

And the growth at 100 µM (HT-29)?
The growth at 100 µM was 90%.

And the growth at 100 µM (HCT-116)?
The growth at 100 µM was 92%.

And the GI50 (BT-549 [10]; read-out: GI50)?
Its GI50 is 1110 nM.

And the CC50 (BT-549 [10]; [11])?
Its CC50 is 5370 nM.

What about the TGI (BT-549 [10]; read-out: TGI) of the same compound?
Its TGI is 2440 nM.

What about the GI50 (BT-549 [10]; read-out: pGI50 (converted)) of the same compound?
Its GI50 is 11200 nM.

What about the CC50 (BT-549 [10]; [12]) of the same compound?
The CC50 was 53700 nM.

What about the TGI (BT-549 [10]; read-out: pTGI (converted)) of the same compound?
The TGI was 24500 nM.

What about the GI50 (SR; read-out: GI50) of the same compound?
The GI50 was 2470 nM.

And the CC50 (SR; [11])?
The CC50 was 4510 nM.

And the TGI (SR; read-out: TGI)?
Its TGI is 5560 nM.

And the GI50 (SR; read-out: pGI50 (converted))?
Its GI50 is 245 nM.

What about the CC50 (SR; [12]) of the same compound?
Its CC50 is 4470 nM.

And the TGI (SR; read-out: pTGI (converted))?
The TGI was 550 nM.

What about the GI50 (OVCAR-4; read-out: GI50) of the same compound?
Its GI50 is 1140 nM.

What about the CC50 (OVCAR-4; [11]) of the same compound?
Its CC50 is 5610 nM.

And the TGI (OVCAR-4; read-out: TGI)?
Its TGI is 2530 nM.

And the GI50 (OVCAR-4; read-out: pGI50 (converted))?
Its GI50 is 1150 nM.

What about the CC50 (OVCAR-4; [12]) of the same compound?
Its CC50 is 5620 nM.

And the TGI (OVCAR-4; read-out: pTGI (converted))?
Its TGI is 2510 nM.

— ChEMBL document CHEMBL4004838, “Design and synthesis of novel phenyl -1, 4-beta-carboline-hybrid molecules as potential anticancer agents” (Eur J Med Chem, 2017)
